Assay results reported in PMC4909201 (PLoS ONE, 2016).
Read-outs that look alike come from different tables or passages of the source.

How the values were obtained:
[1] = target: T1, thrombin binding to GpIbα269-286ppp (Homo sapiens, UniProt P00734); assay: SPR: effect of active site inhibitors on thrombin binding to immobilized GpIbα269-286ppp; details: for increase in affinity of thrombin for GpIbα269-286ppp: 2.5 μM inhibitor vs no inhibitor, p < 0.001; for Change: difference between thrombin binding without inhibitor and at saturating inhibitor
T1 construct: purchased Enzyme Research Laboratories (South Bend, IN)
Procedure: Between runs, flow cells were regenerated with 1 M NaCl for 30 s. […] EC50 values were determined as above. […] Binding affinities were calculated as described above.

[2] = target: T2, 125I-thrombin binding to γA/γA-fibrin clots (Homo sapiens, UniProt P00734); assay: 125I-thrombin binding to γA/γA-fibrin clots; details: for Ki: EC50 converted by Cheng-Prusoff with Kd of 125I-thrombin for fibrin, 10 nM 125I-thrombin, 3 μM γA/γA-fibrinogen
T2 construct: purchased Enzyme Research Laboratories (South Bend, IN)

[3] = target: T3, 125I-thrombin binding to γA/γ′-fibrin clots (Homo sapiens, UniProt P00734); assay: 125I-thrombin binding to γA/γ′-fibrin clots; details: for Ki: EC50 converted by Cheng-Prusoff with Kd of 125I-thrombin for fibrin, 10 nM 125I-thrombin, 1 μM γA/γ′-fibrinogen
T3 construct: purchased Enzyme Research Laboratories (South Bend, IN)

[4] = target: thrombin; details: thrombin inhibition; cited from earlier work
[5] = target: thrombin binding to immobilized factor Va (Homo sapiens, UniProt P00734); assay: SPR: effect of active site inhibitors on thrombin binding to immobilized factor Va
Procedure: (§1) Flows cells were then washed with 1 M ethanolamine for 420 s, followed by the running buffer composed of 20 mM HEPES, 150 mM NaCl, pH 7.4 (HBS) containing 0.01% Tween-80 (HBS-Tw) and 5 mM CaCl2.
(§2) Because of the fast on- and off-rates, all SPR experiments were performed at a flow rate of 25 μl/min [28]. Association times were 120 s and dissociation was monitored by washing the flow cells with HBS-Tw for 600 s. Between runs, flow cells were regenerated with a 45 s wash with HBS-Tw containing 0.5 M CaCl2.
(§3) The rapid approach to equilibrium at the low flow rate nullified any potential mass transport concerns. Nonspecific binding was accounted for by subtracting the control RU values obtained from the unmodified flow cell.

[6] = target: thrombin binding to immobilized γA/γA-fibrin (Homo sapiens, UniProt P00734); assay: SPR: effect of active site inhibitors on thrombin binding to immobilized γA/γA-fibrin
Procedure: as §1, §2, §3

[7] = target: thrombin binding to immobilized γA/γ′-fibrin (Homo sapiens, UniProt P00734); assay: SPR: effect of active site inhibitors on thrombin binding to immobilized γA/γ′-fibrin
Procedure: as §1, §2, §3

[8] = maximal change in percentage of bound 125I-thrombin vs no inhibitor
[9] = maximal change in percentage of bound 125I-thrombin vs no inhibitor, listed as argatroban
[10] = 0–5000 nM inhibitor, 250–500 nM thrombin
[11] = given as reduction (positive number)
[12] = maximal change in percentage of bound 125I-thrombin vs no inhibitor, listed as hirudin

For `CC1CNc2c(cccc2S(=O)(=O)N[C@@H](CCCNC(=N)N)C(=O)N2CC[C@@H](C)C[C@@H]2C(=O)O)C1` (stereo partly shown) [Argatroban, argatroban], the “increase in affinity of thrombin for GpIbα269-286ppp” value [1] was 25–35%, the Change [1] was “+17.3 ± 0.6%” and the Change ([1]; listed as argatroban) was 17%. The Change [2, 8] was “+18.3 ± 5.0%”, the Change [2, 9] was 15–25% and the Change [3, 8] was “+26.1 ± 0.4%”. The Change [3, 9] was 15–25%.
In the case of `CCC1CCN(C(=O)C(CCCN=C(N)N)NS(=O)(=O)c2cccc3c(N(C)C)cccc23)CC1` (stereo not shown) [DAPA, dansylarginine N-(3-ethyl-1,5-pentanediyl)amide], the EC50 ([1]; 0–5000 nM inhibitor, 250 nM thrombin) is reported as 1290 ± 32.3 nM, the “increase in affinity of thrombin for GpIbα269-286ppp” value [1] is reported as 25–35% and the Ki [2] is reported as 2.1 ± 0.9 nM. For the same compound, the Ki [3] was 19.6 ± 19.1 nM, the Ki [4] was 45 nM and the EC50 [5, 10] was 565 ± 200 nM. It also gave an EC50 ([6]; 0–5000 nM inhibitor, 250–500 nM thrombin, Req vs inhibitor concentration) of 514 ± 24 nM and an EC50 [7, 10] of 516 ± 31 nM.
For `[H]/N=C(/N)c1ccc(NCc2nc3cc(C(=O)N(CCC(=O)O)c4ccccn4)ccc3n2C)cc1` [Dabigatran, dabigatran], the Change [1] was 0%, the Change ([1]; listed as dabigatran) was “no effect” and the Change [2] was -21.4 ± 3.3%. For the same compound, the Change [3] was -9.4 ± 1.4%, the “reduction of thrombin binding at saturation” value (“reduction of thrombin binding” below) [5, 11] was 37.9 ± 3.2% and the “reduction of thrombin binding” value [6, 11] was 47.6 ± 0.4%. The “reduction of thrombin binding” value [7, 11] was 28.4 ± 1.6%.
In the case of Hirudin, the Ki [2] is reported as 3.4 ± 0.3 nM, the Change [2, 8] is reported as -100% and the Change [2, 12] is reported as “fully inhibited”. The Ki [3] was 3.4 ± 0.1 nM, the Change [3, 8] was -100% and the Change [3, 12] was “fully inhibited”.
